Experimental data published in PubChem BioAssay AID280 (DTP/NCI, 2004).
Where “and” joins values, the source holds several entries; their conditions need not be identical. Identical values can stand only once. Inconclusive results and toxic doses are left out.

System: nude mice, LOX melanoma ip, survival T/C
Assay: NCI In Vivo Anticancer Drug Screen. Data for tumor model Human Amelanotic Melanoma (LOX) (intraperitoneal) in NU/NU BALB/C (nude) mice
Settings: endpoint: median survival time, higher = longer survival
Description: The antitumor activity of compounds was measured in mice bearing transplantable tumors. Survival or tumor size were measured and the results are expressed as the measurement made in the treated group (T) divided by the measurement made in the vehicle treated control group (C). The tumor model used in this assay is Human Amelanotic Melanoma (LOX) (intraperitoneal) in NU/NU BALB/C (nude) mice

[1] = dose: 60.0 mg/kg/injection, schedule: Q04DX003 (ip), vehicle: saline
[2] = dose: 75.0 mg/kg/injection, schedule: Q04DX003 (ip), vehicle: Klucel (hydroxypropylcellulose) (HPC)
[3] = dose: 300.0 mg/kg/injection, schedule: Q04DX003 (ip), vehicle: Klucel (hydroxypropylcellulose) (HPC)

Compound: COc1cc(C(=O)N/N=C/c2cccc([N+](=O)[O-])c2)cc(OC)c1OC
- T/C (dose: 37.5 mg/kg/injection, schedule: Q04DX003 (ip), vehicle: saline with Tween-80): 98 % of control
- T/C (dose: 75.0 mg/kg/injection, schedule: Q04DX003 (ip), vehicle: saline with Tween-80): 101 % of control and 96 % of control
- T/C (dose: 150.0 mg/kg/injection, schedule: Q04DX003 (ip), vehicle: saline with Tween-80): 104 % of control and 105 % of control
- T/C (dose: 300.0 mg/kg/injection, schedule: Q04DX003 (ip), vehicle: saline with Tween-80): 98 % of control
- T/C (dose: 600.0 mg/kg/injection, schedule: Q04DX003 (ip), vehicle: saline with Tween-80): 105 % of control and 98 % of control
- T/C (dose: 1200.0 mg/kg/injection, schedule: Q04DX003 (ip), vehicle: saline with Tween-80): 114 % of control

Compound: O=P1(N(CCCl)CCCl)NCCCO1 (stereo not drawn)
- T/C (dose: 40.0 mg/kg/injection, schedule: Q04DX003 (ip), vehicle: saline): 111 % of control
- T/C [1]: 115 % of control
- T/C (dose: 90.0 mg/kg/injection, schedule: Q04DX003 (ip), vehicle: saline): 101 % of control

Compound: O=C1c2cccc(NCCNCCO)c2C(=O)c2cccc(NCCNCCO)c21
- T/C (dose: 4.69 mg/kg/injection, schedule: Q04DX003 (ip), vehicle: suspension in saline): 122 % of control
- T/C (dose: 9.38 mg/kg/injection, schedule: Q04DX003 (ip), vehicle: suspension in saline): 120 % of control

Compound: CN=C(NC#N)NCCSCc1nc[nH]c1C
- T/C [2]: 98 % of control
- T/C (dose: 150.0 mg/kg/injection, schedule: Q04DX003 (ip), vehicle: Klucel (hydroxypropylcellulose) (HPC)): 98 % of control
- T/C [3]: 101 % of control

Compound: C/C(=N\NC(=S)N1CCC1)c1ccccn1
- T/C (dose: 3.13 mg/kg/injection, schedule: Q04DX003 (ip), vehicle: other): 99 % of control
- T/C (dose: 6.25 mg/kg/injection, schedule: Q04DX003 (ip), vehicle: other): 96 % of control
- T/C (dose: 12.5 mg/kg/injection, schedule: Q04DX003 (ip), vehicle: other): 95 % of control
- T/C (dose: 25.0 mg/kg/injection, schedule: Q04DX003 (ip), vehicle: other): 100 % of control

Compound: Cc1cccc(OCC(O)CN2CC2)c1 (stereo not drawn)
- T/C (dose: 25.0 mg/kg/injection, schedule: Q04DX003 (ip), vehicle: saline with Tween-80): 104 % of control
- T/C (dose: 50.0 mg/kg/injection, schedule: Q04DX003 (ip), vehicle: saline with Tween-80): 122 % of control and 99 % of control
- T/C (dose: 100.0 mg/kg/injection, schedule: Q04DX003 (ip), vehicle: saline with Tween-80): 121 % of control
- T/C (dose: 200.0 mg/kg/injection, schedule: Q04DX003 (ip), vehicle: saline with Tween-80): 122 % of control

Compound: Cc1c(N)nc([C@H](CC(N)=O)NC[C@H](N)C(N)=O)nc1C(=O)N[C@H](C(=O)N[C@H](C)[C@@H](O)[C@H](C)C(=O)N[C@H](C(=O)NCCc1nc(-c2nc(C(=O)NCCC[S+](C)C)cs2)cs1)[C@@H](C)O)C(OC1OC(CO)C(O)C(O)C1OC1OC(CO)C(O)C(OC(N)=O)C1O)c1cnc[nH]1 (stereo partly drawn)
- T/C (dose: 2.0 mg/kg/injection, schedule: Q01DX015 (ip), vehicle: saline): 165 % of control
- T/C (dose: 4.0 mg/kg/injection, schedule: Q01DX005 (ip), vehicle: saline): 155 % of control
- T/C (dose: 4.0 mg/kg/injection, schedule: Q01DX015 (ip), vehicle: saline): 159 % of control
- T/C (dose: 8.0 mg/kg/injection, schedule: Q01DX005 (ip), vehicle: saline): 175 % of control
- T/C (dose: 8.0 mg/kg/injection, schedule: Q01DX015 (ip), vehicle: saline): 176 % of control
- T/C (dose: 8.0 mg/kg/injection, schedule: Q04DX003 (ip), vehicle: saline): 160 % of control
- T/C (dose: 16.0 mg/kg/injection, schedule: Q01DX015 (ip), vehicle: saline): 87 % of control
- T/C (dose: 24.0 mg/kg/injection, schedule: Q04DX003 (ip), vehicle: saline): 110 % of control
- T/C (dose: 32.0 mg/kg/injection, schedule: Q01DX001 (ip), vehicle: saline): 150 % of control
- T/C (dose: 32.0 mg/kg/injection, schedule: Q01DX005 (ip), vehicle: saline): 175 % of control
- T/C (dose: 32.0 mg/kg/injection, schedule: Q04DX003 (ip), vehicle: saline): 176 % of control
- T/C (dose: 36.0 mg/kg/injection, schedule: Q04DX003 (ip), vehicle: saline): 105 % of control
- T/C (dose: 64.0 mg/kg/injection, schedule: Q01DX001 (ip), vehicle: saline): 151 % of control
- T/C (dose: 128.0 mg/kg/injection, schedule: Q01DX001 (ip), vehicle: saline): 150 % of control

Compound: Oc1ccc(/C=N/Nc2nnc(N/N=C/c3ccc(O)cc3O)c3ccccc23)c(O)c1
- T/C (dose: 12.5 mg/kg/injection, schedule: Q04DX003 (ip), vehicle: suspension in saline): 120 % of control
- T/C (dose: 25.0 mg/kg/injection, schedule: Q04DX003 (ip), vehicle: suspension in saline): 119 % of control

Compound: O=C(/C=C/c1ccccc1)c1ccccc(=O)c1O
- T/C (dose: 6.85 mg/kg/injection, schedule: Q04DX003 (ip), vehicle: Klucel (hydroxypropylcellulose) (HPC)): 100 % of control
- T/C (dose: 13.7 mg/kg/injection, schedule: Q04DX003 (ip), vehicle: Klucel (hydroxypropylcellulose) (HPC)): 97 % of control
- T/C (dose: 27.5 mg/kg/injection, schedule: Q04DX003 (ip), vehicle: Klucel (hydroxypropylcellulose) (HPC)): 104 % of control
- T/C (dose: 55.0 mg/kg/injection, schedule: Q04DX003 (ip), vehicle: Klucel (hydroxypropylcellulose) (HPC)): 108 % of control
- T/C (dose: 110.0 mg/kg/injection, schedule: Q04DX003 (ip), vehicle: Klucel (hydroxypropylcellulose) (HPC)): 94 % of control

Compound: CCCn1c(SC)nc(COC(=O)NC)c1COC(=O)NC
- T/C (dose: 30.0 mg/kg/injection, schedule: Q04DX003 (ip), vehicle: saline): 104 % of control
- T/C [1]: 123 % of control
- T/C (dose: 106.8 mg/kg/injection, schedule: Q04DX003 (ip), vehicle: water): 98 % of control
- T/C (dose: 120.0 mg/kg/injection, schedule: Q04DX003 (ip), vehicle: saline): 119 % of control
- T/C (dose: 160.1 mg/kg/injection, schedule: Q04DX003 (ip), vehicle: water): 103 % of control
- T/C (dose: 240.0 mg/kg/injection, schedule: Q04DX003 (ip), vehicle: saline): 191 % of control
- T/C (dose: 240.0 mg/kg/injection, schedule: Q04DX003 (ip), vehicle: water): 122 % of control
- T/C (dose: 359.8 mg/kg/injection, schedule: Q04DX003 (ip), vehicle: water): 189 % of control
- T/C (dose: 480.0 mg/kg/injection, schedule: Q04DX003 (ip), vehicle: saline): 170 % of control

Compound: COc1ccc2oc(-c3ccc(Cl)cc3)c(N3CCN(C)CC3)c2c1
- T/C (dose: 75.0 mg/kg/injection, schedule: Q04DX003 (ip), vehicle: saline): 91 % of control
- T/C (dose: 150.0 mg/kg/injection, schedule: Q04DX003 (ip), vehicle: saline): 118 % of control
- T/C (dose: 300.0 mg/kg/injection, schedule: Q04DX003 (ip), vehicle: saline): 90 % of control

Compound: CCOc1ccc(C(C)c2cc3c(cc2OC)OCO3)cc1 (stereo not drawn)
- T/C (dose: 150.0 mg/kg/injection, schedule: Q04DX003 (ip), vehicle: distilled water + Tween-80): 177 % of control
- T/C (dose: 300.0 mg/kg/injection, schedule: Q04DX003 (ip), vehicle: distilled water + Tween-80): 161 % of control and 163 % of control
- T/C (dose: 600.0 mg/kg/injection, schedule: Q04DX003 (ip), vehicle: distilled water + Tween-80): 226 % of control and 252 % of control

Compound: CCOC(=O)c1ccc(NN=NCCF)cc1
- T/C (dose: 75.0 mg/kg/injection, schedule: Q04DX003 (ip), vehicle: distilled water + Tween-80 + alcohol): 111 % of control
- T/C (dose: 150.0 mg/kg/injection, schedule: Q04DX003 (ip), vehicle: distilled water + Tween-80 + alcohol): 106 % of control
- T/C (dose: 300.0 mg/kg/injection, schedule: Q04DX003 (ip), vehicle: distilled water + Tween-80 + alcohol): 110 % of control
- T/C (dose: 600.0 mg/kg/injection, schedule: Q04DX003 (ip), vehicle: distilled water + Tween-80 + alcohol): 100 % of control

Compound: NCCSC(C[N+](=O)[O-])c1ccccc1Cl (stereo not drawn)
- T/C (dose: 12.5 mg/kg/injection, schedule: Q04DX003 (ip), vehicle: saline): 107 % of control
- T/C (dose: 25.0 mg/kg/injection, schedule: Q04DX003 (ip), vehicle: saline): 115 % of control
- T/C (dose: 50.0 mg/kg/injection, schedule: Q04DX003 (ip), vehicle: saline): 96 % of control

Compound: CC1(O)C=CC(=O)C=C1
- T/C (dose: 6.25 mg/kg/injection, schedule: Q04DX003 (ip), vehicle: water): 108 % of control
- T/C (dose: 12.5 mg/kg/injection, schedule: Q04DX003 (ip), vehicle: water): 101 % of control
- T/C (dose: 25.0 mg/kg/injection, schedule: Q04DX003 (ip), vehicle: water): 105 % of control
- T/C (dose: 50.0 mg/kg/injection, schedule: Q04DX003 (ip), vehicle: water): 111 % of control

Compound: C=C1c2cccc(O)c2C(O)=C2C(=O)[C@]3(O)C(O)=C(C(N)=O)C(=O)[C@@H](N(C)C)[C@@H]3[C@@H](O)[C@H]12
- T/C (dose: 37.5 mg/kg/injection, schedule: Q04DX003 (ip), vehicle: Klucel (hydroxypropylcellulose) (HPC)): 94 % of control
- T/C [2]: 91 % of control
- T/C [3]: 92 % of control

Compound: CN(C)/N=N/c1nc[nH]c1C(N)=O
- T/C (dose: 100.0 mg/kg/injection, schedule: Q04DX003 (ip), vehicle: Klucel (hydroxypropylcellulose) (HPC)): 107 % of control
